{"source": "paper PMC8524670", "about": "(Pharmacology Research & Perspectives, 2021)", "key": {"[1]": {"target": "P-gp (Homo sapiens, UniProt P08183)", "sequence (P08183 whole entry)": "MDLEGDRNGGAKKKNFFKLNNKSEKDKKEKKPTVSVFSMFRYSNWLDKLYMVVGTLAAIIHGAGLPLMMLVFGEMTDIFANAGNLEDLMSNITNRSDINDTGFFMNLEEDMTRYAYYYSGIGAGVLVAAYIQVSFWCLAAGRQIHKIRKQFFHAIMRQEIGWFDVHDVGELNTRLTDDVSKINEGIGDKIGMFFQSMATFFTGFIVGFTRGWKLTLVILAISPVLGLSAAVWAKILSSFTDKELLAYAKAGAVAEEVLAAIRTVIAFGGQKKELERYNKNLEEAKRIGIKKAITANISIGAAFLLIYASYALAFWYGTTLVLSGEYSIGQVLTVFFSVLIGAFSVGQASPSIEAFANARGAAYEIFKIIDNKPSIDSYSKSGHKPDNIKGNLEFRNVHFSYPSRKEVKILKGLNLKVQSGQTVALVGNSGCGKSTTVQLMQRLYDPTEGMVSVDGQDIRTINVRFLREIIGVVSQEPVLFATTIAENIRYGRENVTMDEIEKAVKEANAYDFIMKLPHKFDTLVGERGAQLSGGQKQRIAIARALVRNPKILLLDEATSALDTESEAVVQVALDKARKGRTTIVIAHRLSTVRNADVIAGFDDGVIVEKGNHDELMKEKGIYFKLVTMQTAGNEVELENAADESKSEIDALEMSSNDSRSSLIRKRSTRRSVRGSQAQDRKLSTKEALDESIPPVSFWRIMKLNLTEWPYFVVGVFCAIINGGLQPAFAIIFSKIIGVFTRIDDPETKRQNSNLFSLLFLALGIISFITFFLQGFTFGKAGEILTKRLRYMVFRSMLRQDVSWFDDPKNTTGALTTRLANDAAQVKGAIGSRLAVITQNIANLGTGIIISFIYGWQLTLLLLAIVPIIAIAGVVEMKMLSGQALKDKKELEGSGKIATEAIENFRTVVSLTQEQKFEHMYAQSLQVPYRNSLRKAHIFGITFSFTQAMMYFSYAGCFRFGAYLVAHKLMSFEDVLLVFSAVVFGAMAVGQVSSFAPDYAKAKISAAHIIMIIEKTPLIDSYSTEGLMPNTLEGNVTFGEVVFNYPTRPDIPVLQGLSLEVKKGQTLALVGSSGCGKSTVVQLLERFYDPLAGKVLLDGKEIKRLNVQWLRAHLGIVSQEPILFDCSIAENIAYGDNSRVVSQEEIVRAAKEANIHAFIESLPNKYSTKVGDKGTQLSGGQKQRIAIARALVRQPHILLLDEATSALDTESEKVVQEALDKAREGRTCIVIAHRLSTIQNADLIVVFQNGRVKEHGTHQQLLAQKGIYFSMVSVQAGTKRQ", "conditions": "coadministration of zanubrutinib; cited from earlier work"}, "[2]": {"system": "CYP1A2", "conditions": "DDI basic model value for induction"}, "[3]": {"experiment": "CYP phenotyping in HLMs with chemical inhibitors", "conditions": "1 μM"}, "[4]": {"system": "CYP2B6", "experiment": "CYP induction in human hepatocytes", "type": "in vitro ADME"}, "[5]": {"target": "T1, CYP2C19 (Homo sapiens, UniProt P33261)", "T1 sequence (P33261 whole entry)": "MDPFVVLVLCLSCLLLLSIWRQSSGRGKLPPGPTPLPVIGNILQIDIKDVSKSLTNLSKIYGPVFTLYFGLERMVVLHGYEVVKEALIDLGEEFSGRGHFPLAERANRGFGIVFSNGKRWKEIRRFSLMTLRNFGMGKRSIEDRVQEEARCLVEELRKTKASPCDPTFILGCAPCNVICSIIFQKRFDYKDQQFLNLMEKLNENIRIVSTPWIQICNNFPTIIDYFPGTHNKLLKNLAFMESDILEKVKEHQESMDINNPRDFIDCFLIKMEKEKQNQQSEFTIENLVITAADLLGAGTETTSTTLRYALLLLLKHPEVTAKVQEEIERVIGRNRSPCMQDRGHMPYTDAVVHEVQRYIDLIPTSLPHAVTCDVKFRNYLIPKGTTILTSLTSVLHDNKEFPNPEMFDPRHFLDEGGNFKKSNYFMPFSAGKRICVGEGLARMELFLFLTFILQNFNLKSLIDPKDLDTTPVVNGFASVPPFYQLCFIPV", "experiment": "Time-dependent CYP inhibition in HLMs", "conditions": "10 µM zanubrutinib, 30 min pre-incubation with HLMs and NADPH"}, "[6]": {"target": "T2, OATP1B3 (Homo sapiens, UniProt Q9NPD5)", "T2 sequence (Q9NPD5 1-702)": "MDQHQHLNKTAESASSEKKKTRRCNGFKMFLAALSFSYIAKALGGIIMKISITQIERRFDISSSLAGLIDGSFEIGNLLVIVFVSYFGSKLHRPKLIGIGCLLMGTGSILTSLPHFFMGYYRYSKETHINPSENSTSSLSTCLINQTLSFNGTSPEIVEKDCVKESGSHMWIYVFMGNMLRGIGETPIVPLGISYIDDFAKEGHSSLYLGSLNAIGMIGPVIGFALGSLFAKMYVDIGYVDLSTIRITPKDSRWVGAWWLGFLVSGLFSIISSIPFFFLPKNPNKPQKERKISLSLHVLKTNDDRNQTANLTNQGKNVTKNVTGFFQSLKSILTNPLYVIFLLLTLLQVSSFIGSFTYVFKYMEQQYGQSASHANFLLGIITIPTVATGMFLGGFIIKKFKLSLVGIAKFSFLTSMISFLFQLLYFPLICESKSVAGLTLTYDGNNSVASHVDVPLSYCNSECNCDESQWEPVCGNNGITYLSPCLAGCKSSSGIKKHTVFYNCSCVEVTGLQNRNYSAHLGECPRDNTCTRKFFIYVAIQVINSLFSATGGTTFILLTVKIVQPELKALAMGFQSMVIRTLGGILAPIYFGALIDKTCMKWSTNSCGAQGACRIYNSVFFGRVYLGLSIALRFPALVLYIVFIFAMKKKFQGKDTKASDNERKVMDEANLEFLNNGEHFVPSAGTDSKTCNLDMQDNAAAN", "experiment": "SLC transportation assay in HEK293 cells", "type": "in vitro ADME", "conditions": "uptake ratios <2 at 0.1, 0.3, 5 µM"}, "[7]": {"target": "T3, OCT2 (Homo sapiens, UniProt O15244)", "T3 sequence (O15244 1-555)": "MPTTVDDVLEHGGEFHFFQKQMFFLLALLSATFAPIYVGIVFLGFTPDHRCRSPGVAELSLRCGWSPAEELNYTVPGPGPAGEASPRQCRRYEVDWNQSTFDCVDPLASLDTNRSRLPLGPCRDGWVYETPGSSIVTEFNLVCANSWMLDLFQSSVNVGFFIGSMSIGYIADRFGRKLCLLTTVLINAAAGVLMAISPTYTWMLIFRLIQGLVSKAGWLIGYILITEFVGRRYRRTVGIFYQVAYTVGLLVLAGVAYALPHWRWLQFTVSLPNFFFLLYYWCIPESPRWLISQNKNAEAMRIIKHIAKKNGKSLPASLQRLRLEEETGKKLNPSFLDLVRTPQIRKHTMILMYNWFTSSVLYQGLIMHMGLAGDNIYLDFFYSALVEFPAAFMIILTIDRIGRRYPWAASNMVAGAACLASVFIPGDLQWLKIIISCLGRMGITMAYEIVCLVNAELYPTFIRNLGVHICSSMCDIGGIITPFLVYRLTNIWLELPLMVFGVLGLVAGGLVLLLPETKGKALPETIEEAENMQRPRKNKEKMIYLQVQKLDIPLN", "experiment": "SLC transportation assay in HEK293 cells", "type": "in vitro ADME", "conditions": "uptake ratios <2 at 0.1, 0.3, 5 µM"}, "[8]": {"target": "T1, CYP2C19", "experiment": "CYP reversible inhibition in HLMs", "conditions": "S-mephenytoin"}, "[9]": {"target": "rCYP3A4 (Homo sapiens, UniProt P08684)", "sequence (P08684 whole entry)": "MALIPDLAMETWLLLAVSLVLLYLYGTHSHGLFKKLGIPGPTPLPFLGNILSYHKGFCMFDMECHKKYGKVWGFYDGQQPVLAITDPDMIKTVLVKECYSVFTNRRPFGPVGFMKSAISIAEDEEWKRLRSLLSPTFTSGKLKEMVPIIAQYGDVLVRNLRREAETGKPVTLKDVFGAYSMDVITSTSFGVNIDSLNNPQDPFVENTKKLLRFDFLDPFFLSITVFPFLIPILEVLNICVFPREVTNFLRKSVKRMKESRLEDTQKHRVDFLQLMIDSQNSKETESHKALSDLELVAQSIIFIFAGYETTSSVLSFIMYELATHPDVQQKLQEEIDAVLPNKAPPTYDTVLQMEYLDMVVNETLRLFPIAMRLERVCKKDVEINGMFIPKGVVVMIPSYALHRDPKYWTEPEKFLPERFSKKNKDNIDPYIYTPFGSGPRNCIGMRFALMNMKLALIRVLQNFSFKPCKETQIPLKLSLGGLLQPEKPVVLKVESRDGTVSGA", "experiment": "CYP phenotyping with recombinant CYPs", "conditions": "1 μM, only rCYP3A4 among 7 rCYPs"}, "[10]": {"conditions": "cited from earlier work"}, "[11]": {"target": "T3, OCT2", "experiment": "SLC inhibition assay in HEK293 cells", "type": "in vitro ADME"}, "[12]": {"target": "CYP2D6 (Homo sapiens, UniProt P10635)", "sequence (P10635 whole entry)": "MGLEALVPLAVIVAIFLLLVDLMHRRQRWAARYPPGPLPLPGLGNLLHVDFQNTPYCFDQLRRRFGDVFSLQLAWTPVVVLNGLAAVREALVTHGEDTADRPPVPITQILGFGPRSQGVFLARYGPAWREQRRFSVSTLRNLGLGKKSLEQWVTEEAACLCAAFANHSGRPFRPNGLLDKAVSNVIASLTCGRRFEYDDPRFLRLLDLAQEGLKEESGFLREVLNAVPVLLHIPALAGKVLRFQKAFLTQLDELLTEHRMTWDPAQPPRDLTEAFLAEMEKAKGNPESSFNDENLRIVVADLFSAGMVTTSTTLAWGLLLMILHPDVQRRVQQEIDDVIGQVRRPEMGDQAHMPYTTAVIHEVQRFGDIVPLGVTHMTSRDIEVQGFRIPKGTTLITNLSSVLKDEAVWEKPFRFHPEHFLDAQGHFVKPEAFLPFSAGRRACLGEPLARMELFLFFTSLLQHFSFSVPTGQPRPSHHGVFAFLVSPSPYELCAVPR", "experiment": "Time-dependent CYP inhibition in HLMs", "conditions": "10 µM zanubrutinib, 30 min pre-incubation with HLMs and NADPH"}, "[13]": {"target": "T2, OATP1B3", "experiment": "SLC inhibition assay in HEK293 cells", "type": "in vitro ADME", "conditions": "0.05–5 µM"}, "[14]": {"target": "T4, human BCRP (Homo sapiens, UniProt Q9UNQ0)", "T4 sequence (Q9UNQ0 1-655)": "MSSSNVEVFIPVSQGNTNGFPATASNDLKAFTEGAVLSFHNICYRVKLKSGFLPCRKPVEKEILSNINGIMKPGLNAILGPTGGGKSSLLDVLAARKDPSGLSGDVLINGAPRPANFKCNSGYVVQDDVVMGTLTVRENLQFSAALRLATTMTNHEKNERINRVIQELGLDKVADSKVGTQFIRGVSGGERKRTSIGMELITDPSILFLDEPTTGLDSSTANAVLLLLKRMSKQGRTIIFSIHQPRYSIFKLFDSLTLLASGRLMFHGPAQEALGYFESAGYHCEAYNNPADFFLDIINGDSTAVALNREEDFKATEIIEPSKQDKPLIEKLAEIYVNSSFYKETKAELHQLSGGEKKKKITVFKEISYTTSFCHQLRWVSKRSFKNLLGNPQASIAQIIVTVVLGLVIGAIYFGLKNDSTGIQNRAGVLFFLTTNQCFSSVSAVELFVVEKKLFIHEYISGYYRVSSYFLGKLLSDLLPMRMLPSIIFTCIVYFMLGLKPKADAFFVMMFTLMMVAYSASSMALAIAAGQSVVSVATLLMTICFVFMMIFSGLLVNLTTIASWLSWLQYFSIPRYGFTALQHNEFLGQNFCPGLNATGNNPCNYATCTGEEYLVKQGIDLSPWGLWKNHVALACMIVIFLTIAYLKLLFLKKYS", "experiment": "BCRP inhibition in vesicles", "type": "in vitro ADME", "conditions": "0.05–5 µM"}, "[15]": {"conditions": "human, HEK293 cells overexpressing OCT2 (and MOCK cells), probe metformin"}}, "data": [{"smiles": "C=CC(=O)N1CCC([C@@H]2CCNc3c(C(N)=O)c(-c4ccc(Oc5ccccc5)cc4)nn32)CC1", "note": "[zanubrutinib]", "values": [{"measurement": "Increase of C max of P-gp probe digoxin", "setting": "[1]", "value": 34, "unit": "%"}, {"measurement": "R 3", "setting": "[2]", "value": 0.37}, {"measurement": "Zanubrutinib remaining", "setting": "[3]; 30-min incubation with HLMs + CYP3A inhibitor ketoconazole 1 µM", "value": 98.9, "unit": "%"}, {"measurement": "Zanubrutinib remaining", "setting": "[3]; 30-min incubation with HLMs, no inhibitor", "value": 32.8, "unit": "%"}, {"measurement": "R 3", "setting": "[4]; DDI basic model value for induction", "value": 0.55}, {"measurement": "EC50 at 2 days", "setting": "[4]; human, cryopreserved human hepatocytes", "value": 730, "unit": "nM"}, {"measurement": "Ch", "setting": "[4]; static model term, induction in liver", "value": 1.23}, {"measurement": "Percent loss of enzymatic activity", "setting": "[5]", "value": "−4.58", "unit": "%"}, {"measurement": "Substrate status", "setting": "[6]", "value": "unlikely to be a substrate"}, {"measurement": "Substrate status", "setting": "[7]", "value": "unlikely to be a substrate"}, {"measurement": "R1", "setting": "[8]; DDI basic model, hepatic", "value": 1.03}, {"measurement": "Ah", "setting": "[8]; static model term, liver inhibition", "value": 0.97}, {"measurement": "Disappearance of zanubrutinib with recombinant CYP", "setting": "[9]", "value": "remarkable disappearance"}, {"measurement": "C max (mean steady‐state concentration)", "setting": "[10]; 160 mg BID, dose-escalation study, ref data on file", "value": 338, "unit": "ng/mL"}, {"measurement": "ka (first‐order absorption rate constant)", "setting": "[10]; estimated from population PK", "value": 0.526}, {"measurement": "IC50", "setting": "[11]", "value": "~4500", "unit": "nM"}, {"measurement": "activity at 0.05 µM", "setting": "[11]; [15]", "value": "107 ± 10", "unit": "%"}, {"measurement": "activity at 0.2 µM", "setting": "[11]; [15]", "value": "339 ± 5.7", "unit": "%"}, {"measurement": "activity at 1 µM", "setting": "[11]; [15]", "value": "178 ± 36", "unit": "%"}, {"measurement": "activity at 5 µM", "setting": "[11]; [15]", "value": "48.4 ± 5.2", "unit": "%"}, {"measurement": "Inhibitor status", "setting": "[11]; up to 5.0 μM", "value": "marginal inhibitor"}, {"measurement": "Percent loss of enzymatic activity", "setting": "[12]", "value": "−14.6", "unit": "%"}, {"measurement": "Inhibition of uptake activity", "setting": "[13]", "value": "not inhibited"}, {"measurement": "BCRP inhibition", "setting": "[14]", "value": "did not inhibit BCRP activity"}]}]}
